The target of one data set is helical B-DNA. The experiment in a line: DNA binding/denaturation/precipitation from solution. An excerpt:
The chemoprotective polyamines of the invention are also able to bind, denature and precipitate DNA from solution As is known in the field, as the concentration of polyamine is increased, there is a point where polyamine binding to helical B-DNA induces single-stranded ‘bubbles’ and conversion to other forms of DNA structure, such as 2-DNA (Feuerstein, B. et al. Nuc. Acids Res. 17:6883-6892, 1989; Basu, H. and Marton, L. Biochem. J. 244:243-246, 1987), as well as precipitating the DNA from solution.
This relationship between arm length of the chemoprotective polyamine and increased ability to disrupt and denature B-DNA structure is also a unique aspect of this invention. The increased ability to bind DNA and disrupt its helical structure may also contribute to the molecule's ability to protect cellular DNA against electrophilic chemotherapy drug metabolites and against oxygen free radicals generated during radiotherapy. Both of these toxic modalities are believed to require normal B-DNA helical structure within the cell's nuclear DNA in order to achieve chemical or physical disruption of the cellular DNA, the first step in the apoptotic cascade.

Data set [1] relates to primary, diploid fibroblasts isolated from human skin. The experiment in a line: In vitro growth inhibition of primary diploid human skin fibroblasts. The data set is classed as cell-based. The procedure: FIG. 2 illustrates the relationship between the number of aliphatic carbon atoms in each chemoprotective polyamine side chain (‘arm’) and the respective IC50 dose for inhibition of human fibroblast growth.
The in vitro growth inhibitory effects of certain of the chemoprotective polyamines of the invention were measured using primary, diploid fibroblasts isolated from human skin.

A further data set relates to p21. The experiment in a line: p21 induction in 23SK human skin cells by western analysis. The data set is classed as cell-based. To be noted: 30 hr exposure. The procedure:
FIGS. 3A and 3B illustrate the level of induced p21 protein seen in diploid human fibroblasts after a 30 hr exposure to each of the indicated chemoprotective polyamines. […] In these experiments, the 23SK human skin cells were exposed for 30 hr to an “ICso” dose of each of the indicated chemoprotective polyamines and then lysed. Cell extracts were then prepared in order to measure p21 levels by western analysis (FIG. 3A).
FIG. 3 illustrates that chemoprotective polyamines are able to induce expression of the negative cell cycle regulatory protein, p21, after exposing the human skin cells to the polyamine molecules. […] In these experiments, the 23SK human skin cells were exposed for 30 hr to an “IC80” dose of each of the indicated chemoprotective polyamines and then lysed. Cell extracts were then prepared in order to measure p21 levels by western analysis (FIG. 3A). Although the ability of modified polyamines to induce p21 is known in the literature (Kramer, D. et al., Cancer Res. 59:1278-1286, 1999), it is a novel aspect of this invention that those chemoprotective polyamines with longer aliphatic “arms” were better able to induce expression of p21 as shown in FIG. 4.

The test system of the next data set is 23SK skin cells. The data set is described as follows: Cell cycle distribution by flow cytometry in 23SK skin cells. The data set is classed as cell-based, human. To be noted: for Cell Cycle Distribution At IC80 Dose: G1 / Cell Cycle Distribution At IC80 Dose: G2/M / Cell Cycle Distribution At IC80 Dose: S: 23SK cells. An excerpt:
FIGS. 5A-5D are cell histograms showing the results from flow cytometry analysis of chemoprotective polyamine-treated 23SK skin cells.
In FIG. 5, cell histograms showing the results from flow cytometry analysis of chemoprotective polyamine-treated 23SK skin cells are shown. […] The transient nature of the cell cycle block induced by chemoprotective polyamines is believed to be an important aspect of their efficacy, i.e., their ability to block cell cycle progression in stem cells during the course of chemo- or radiotherapy, and the resumption of normal stem cell division after a given cancer therapy course has been completed.

Data set [2] relates to Cytoxan-induced alopecia in the rat model. The data set is classed as in vivo. To be noted: rat pups, 35 ug/gm i.p., approximately 7 days after challenge. From the text: FIGS. 6A-6E illustrate the efficacy of each of the indicated chemoprotective polyamines in protecting against Cytoxan-induced alopecia in the rat model Hussein et al., 1990, infra). In this protocol (See Example 2), chemoprotective polyamines are applied topically to the rat pups' backs in an alcohol:water delivery vehicle, once per day, for five days before and five days after a single systemic dose of Cytoxan.
The efficacy of […] polyamines in reducing or preventing chemotherapy-induced alopecia in a rat model was examined. This animal model mimics many of the features found in chemotherapy-induced alopecia seen in humans and is considered a clinically relevant model for testing novel therapeutics.
Induction of alopecia by cytoxan (CTX). Lactating Sprague Dawley mother rats with rat pups were purchased from Harlan Sprague Dawley (Indianapolis, Ind.). The mother rats were given food and water ad libitum. The rats pups were tested in the model of chemotherapy-induced alopecia described by Hussein A. M. et al., Science: 249, 1564 (1990). Cytoxan (CTX), a chemotherapeutic widely used in the treatment of cancer, was used to induce alopecia in the rats. […]
Approximately 7 to 10 days after CTX treatment, the pups were evaluated for alopecia Hair loss was evaluated using a modified alopecia-scoring index described by Chen G. et al., Int. […]

Where [3] appears, read: Expt. 1 (first or only value in cell), read-out: DNA Bind/ppt. IC50, Expt. 1.
Setting [4] is: Expt. 1, read-out: IC50 (drug concentration that caused a 50% inhibition of cell growth), Expt. 1.
[5] abbreviates: Expt. 2, read-out: IC50 (drug concentration that caused a 50% inhibition of cell growth), Expt. 2.
The mark [6] stands for this setting: Expt. 2 (second value in cell), read-out: DNA Bind/ppt. IC50, Expt. 2.
Where [7] appears, read: 23SK cells treated for 72 hr (FIG. 5C).

The text below walks through data of US20050027016A1, “Polyamine compounds and compositions for use in conjection with cancer therapy” (priority 2002, published 2005).

Like-named read-outs stand apart in the source and are kept apart here.

For the compound `CCNCCCCNCC=C(CS)CNCCCCNCC` [PrC-114], the IC50 on helical B-DNA (setting [3]) turned out to be 94 µM; in data set [1] (setting [4]) it was 850 µM; in data set [1] (setting [5]), 240 µM.
`CCNCCCCNCCCCNCCCCNCCCCNCC=C(CNCCCCNCCCCNCCCCNCCCCNCC)CN(C)C` [PrC-121]: the IC50 at helical B-DNA (setting [3]) is 49 µM. Also, the IC50 in data set [1] (setting [4]) came to 0.15 µM. Moreover, in the data set on p21, the “p21 fold-induction at IC80 Dose” value stood at 3.26 fold. In the data set on 23SK skin cells, the “Cell Cycle Distribution At IC80 Dose: G1” value is 76%, the “Cell Cycle Distribution At IC80 Dose: G2/M” value was 20% and the “Cell Cycle Distribution At IC80 Dose: S” value turned out to be 4%.
As for `CCNCCCCNCCCCNCCCCNCCCCNCC=C(CS)CNCCCCNCCCCNCCCCNCCCCNCC` [PrC-117], on helical B-DNA (setting [3]), the IC50 was found to be 58 µM. Moreover, the IC50 at helical B-DNA (setting [6]) came out at 57 µM. Moreover, the IC50 in data set [1] (setting [4]) was found to be 0.32 µM. Further, the IC50 in data set [1] (setting [5]) was 0.24 µM. Moreover, the “p21 fold-induction at IC80 Dose” value in the data set with p21 is reported as “˜3.0 fold”. In the data set with 23SK skin cells (setting [7]), the “cells in G1 compartment” value worked out at 86.23% and the “cells in S+G2 compartments” value was 13.77%. In the data set with 23SK skin cells, the “Cell Cycle Distribution At IC80 Dose: G1” value is on record as 86%, the “Cell Cycle Distribution At IC80 Dose: G2/M” value came out at 3% and the “Cell Cycle Distribution At IC80 Dose: S” value came to 11%. Further, the “distribution within cell cycle compartments after drug removal” value in the data set with 23SK skin cells (72 hr treatment, then 48 hr in medium devoid of compound (FIG. 5D)) is “basically returned to that seen in cells previously untreated with chemoprotective polyamine”.
`CCNCCCCNCCCCNCCCCNCC=C(CS)CNCCCCNCCCCNCCCCNCC` [PrC-116]: at helical B-DNA (setting [3]), the IC50 was 82 µM. Further, on helical B-DNA (setting [6]), the IC50 stood at 63 µM. Besides, the IC50 in data set [1] (setting [4]) amounted to 5.8 µM. In addition, the “p21 fold-induction at IC80 Dose” value with p21 was found to be 2.32 fold. For the same compound, in the data set with 23SK skin cells, the “Cell Cycle Distribution At IC80 Dose: G1” value is 66%, the “Cell Cycle Distribution At IC80 Dose: G2/M” value is recorded as 23% and the “Cell Cycle Distribution At IC80 Dose: S” value was found to be 11%.
On to `CCNCCCCNCC=C(CNCC)CNCCCCNCC` [PrC-110], for which, in the data set on 23SK skin cells, the “Cell Cycle Distribution At IC80 Dose: G1” value worked out at 60%, the “Cell Cycle Distribution At IC80 Dose: G2/M” value is 14% and the “Cell Cycle Distribution At IC80 Dose: S” value worked out at 26%.
For the compound `O=P1(N(CCCl)CCCl)NCCCO1` (stereo not drawn) [CTX, cyclophosphamide(cytoxan)], the hair loss induced in data set [2] was 100%.
Take `CCNCCCCNCCCCNCCCCNCCCCNCC=C(CNC)CNCCCCNCCCCNCCCCNCCCCNCC` [PrC-120]: the IC50 on helical B-DNA (setting [3]) is 57 µM; in data set [1] (setting [4]), 0.22 µM; in data set [1] (setting [5]) it was 0.18 µM. For the same compound, the “p21 fold-induction at IC80 Dose” value in the data set on p21 was determined as 2.01 fold.
For `CCNCCCCNCCCCNCC=C(CS)CNCCCCNCCCCNCC` [PrC-115], the IC50 was found to be 37 µM at helical B-DNA (setting [3]), 83 µM at helical B-DNA (setting [6]), 4100 µM in data set [1] (setting [4]) and 1090 µM in data set [1] (setting [5]).
As for `CN[C@H]1CCc2cc(OC)c(OC)c(OC)c2-c2ccc(OC)c(=O)cc21` [Colcemid, reference compound], in the data set on 23SK skin cells, the “Cell Cycle Distribution At IC80 Dose: G1” value was 8%, the “Cell Cycle Distribution At IC80 Dose: G2/M” value was determined as 81% and the “Cell Cycle Distribution At IC80 Dose: S” value is recorded as 11%.
The like results for `CCNCCCCNCCCCNCCCCNCC=C(CNCC)CNCCCCNCCCCNCCCCNCC` [PrC-112] were, in that order, 61%, 16% and 23%.
The like results for `CCNCCCCNCCCCNCCCCNCCCCNCC=C(CNCC)CNCCCCNCCCCNCCCCNCCCCNCC` [PrC-113] were, in that order, 77%, 14% and 8%.
The matching figures for `CCNCCCCNCCCCNCC=C(CNCC)CNCCCCNCCCCNCC` [PrC-111]: 60%, 14% and 25%.
